Reference: patent publication US20220226257A1, “USE OF CANNABINOIDS IN THE TREATMENT OF COM[…] EPILEPSY” (GW Research Limited, priority 2019, published 2022)

What was measured:
[1] = tested on: patients with Lennox-Gastaut syndrome; experiment: Biostatistical analysis of QOLCE subscale scores versus placebo, randomised controlled trial; assay type: in vivo, human; design: key to Biostatistical analysis of QOL subscale score versus placebo: ↔: no change (indicated by); ↑: a difference of greater than 10 points between medians (indicated by t); this change was statistically significant (indicated by *); conditions: 20 mg/kg/day
Excerpt: The following example uses biostatistical analysis to look for trends in QOL data collected in a randomised controlled trial of cannabidiol in patients with Lennox-Gastaut syndrome.
(§1) This study was a 1:1 randomised, double-blind, 14-week comparison of cannabidiol oral solution (CBD-OS) versus placebo. The treatment period consisted of a two-week titration period followed by a 12-week maintenance period. The treatment period was followed by a 10-day taper period and a four-week follow-up period. The study aimed to determine the efficacy, safety and tolerability of 20 mg/kg/day cannabidiol compared with placebo.
(§2) The Quality of Life in Childhood Epilepsy (QOLCE) survey was used to measure multiple QOL domains. Caregivers completed the survey at baseline and after the 12 weeks of treatment. The QOLCE questionnaire assessed 91 items divided into five sub-domains: physical function; cognitive function; emotional well-being; social function and behaviour. General health was also recorded.
Table 6 below details the areas where there no change (indicated by or a difference of greater than 10 points between medians (indicated by t), and whether this change was statistically significant (indicated by *).

[2] = tested on: children and young adults with severe, childhood onset treatment-resistant epilepsy (TRE); experiment: Principal component analysis of QOLCE survey data, open label (expanded access) study of CBD; assay type: in vivo, human
Description: PCA is a useful tool to visualise relatedness between populations of data and was used in the present example to determine the symptom domains that were improved during an open label study of cannabidiol (CBD) in patients with treatment resistant epilepsy.
(§3) Children and young adults with severe, childhood onset treatment-resistant epilepsy (TRE) were tested with a highly purified extract of cannabidiol (CBD) obtained from a cannabis plant. The participants in the study were part of an expanded access compassionate use program for CBD.
(§4) All patients entered a baseline period of 4 weeks when parents/caregivers kept prospective seizure diaries, noting all countable motor seizure types.
(§5) The patients then received a highly purified CBD extract (greater than 98% CBD w/w) in sesame oil, of known and constant composition, at a dose of 5 mg/kg/day in addition to their baseline anti-epileptic drug (AED) regimen.
(§6) Laboratory testing for hematologic, liver, kidney function, and concomitant AED levels was performed at baseline, and at regular intervals throughout the 12 weeks of the study.
as §2, with “Caregivers completed the survey at baseline and after the 12 weeks of treatment.” left out, “recorded. […]” for “recorded.”

[3] = tested on: epileptic male Wistar rats (RISE-SRS); conditions: shown previously; cited from earlier work
[4] = tested on: children and young adults with treatment resistant epilepsy associated with Dravet syndrome and Lennox-Gastaut syndrome; experiment: Principal component analysis of QOLCE survey data pooled from three randomised controlled clinical trials; assay type: in vivo, human
Excerpt: As described in Example 1 above PCA is a useful tool to scrutinise data which have several variables. A similar analysis was undertaken on the data produced using data pooled from three randomised controlled clinical trials on children and young adults with treatment resistant epilepsy associated with Dravet syndrome (one trial) and Lennox-Gastaut syndrome (LGS) (2 trials).
In the two placebo-controlled studies of CBD as a treatment for seizures associated with LGS, cannabidiol (CBD) was used as add-on treatment in patients who were defined as treatment-resistant. Patients had previously tried and stopped using a median of 6 AEDs and were being maintained on a median of 3 AEDs.
as §1, with “The first” for “This”, “The study aimed to determine the efficacy, safety and tolerability of 20 mg/kg/day cannabidiol compared with placebo.” left out
as §2, with “Caregivers completed the survey at baseline and after the 12 weeks of treatment.” left out

[5] = tested on: patients suffering from epilepsy syndromes (childhood onset treatment-resistant epilepsy); experiment: Case study analysis of quality of life measures, open label study (expanded access programme); assay type: in vivo, human
Description: The present example provides further data on additional epilepsy syndromes which were studied as part of the expanded access programme described in Example 1.
as §3, §4, §5, §6
Table 7 below details the results obtained at the end of the study period (after between 12 and 108 weeks) from patients suffering from epilepsy syndromes in an open label study.

[6] = tested on: paediatric patients with epilepsy; conditions: care-giver-reported, 12 weeks open label; cited from earlier work

Question: Which “QOL domains with a significant increase above baseline” value ([1]; Lennox-Gastaut syndrome) does the source give for C=C(C)[C@@H]1CCC(C)=C[C@H]1c1c(O)cc(CCCCC)cc1O [CBD, Cannabidiol] here?
Answer: memory and language

Question: What about the “domains with a decrease in quality of life” value ([1]; Lennox-Gastaut syndrome) of the same molecule?
Answer: no domains where there was a decrease in quality of life

Question: And the “Biostatistical analysis of QOL subscale score versus placebo” value ([1]; QOL subscale: Anxiety)?
Answer: ↔

Question: And the “Biostatistical analysis of QOL subscale score versus placebo” value ([1]; QOL subscale: Attention / concentration)?
Answer: ↔

Question: What about the “Biostatistical analysis of QOL subscale score versus placebo” value ([1]; QOL subscale: Behaviour) of the same molecule?
Answer: ↔

Question: And the “Biostatistical analysis of QOL subscale score versus placebo” value ([1]; QOL subscale: Control / helplessness)?
Answer: ↔

Question: And the “Biostatistical analysis of QOL subscale score versus placebo” value ([1]; QOL subscale: Depression)?
Answer: ↔

Question: What about the “Biostatistical analysis of QOL subscale score versus placebo” value ([1]; QOL subscale: Energy/fatigue) of the same molecule?
Answer: ↔

Question: What about the “Biostatistical analysis of QOL subscale score versus placebo” value ([1]; QOL subscale: General health) of the same molecule?
Answer: ↔

Question: And the “Biostatistical analysis of QOL subscale score versus placebo” value ([1]; QOL subscale: Language)?
Answer: ↑*

Question: And the “Biostatistical analysis of QOL subscale score versus placebo” value ([1]; QOL subscale: Memory)?
Answer: ↑*

Question: And the “Biostatistical analysis of QOL subscale score versus placebo” value ([1]; QOL subscale: Other cognitive)?
Answer: ↑*

Question: And the “Biostatistical analysis of QOL subscale score versus placebo” value ([1]; QOL subscale: Physical restriction)?
Answer: ↔

Question: And the “Biostatistical analysis of QOL subscale score versus placebo” value ([1]; QOL subscale: Self-esteem)?
Answer: ↔

Question: What about the “Biostatistical analysis of QOL subscale score versus placebo” value ([1]; QOL subscale: Social activities) of the same molecule?
Answer: ↔

Question: And the “Biostatistical analysis of QOL subscale score versus placebo” value ([1]; QOL subscale: Social interaction)?
Answer: ↑ (a difference of greater than 10 points between medians (indicated by t))

Question: And the “Biostatistical analysis of QOL subscale score versus placebo” value ([1]; QOL subscale: Stigma item)?
Answer: ↔

Question: What about the “areas where improvement was observed without an improvement of seizures” value ([2]; bottom right area of the biplot) of the same molecule?
Answer: control/helplessness and stigma item

Question: What about the “areas associated with quality of life with improvements (right of the zero F1 axis)” value ([2]; open label study, 12 weeks, 5 to 50 mg/kg/day) of the same molecule?
Answer: attention and concentration; QOL item; energy/fatigue; control/helplessness and stigma item

Question: What about the “cognitive performances of rats exhibiting spontaneous recurrent seizures” value [3] of the same molecule?
Answer: restore the deteriorated cognitive performances

Question: And the “seizure ratio of rats exhibiting spontaneous recurrent seizures” value [3]?
Answer: improved the seizure ratio

Question: And the “areas of QOL improved despite no improvement in seizure burden” value [4]?
Answer: memory; language; control/helplessness; stigma item and cognition

Question: And the “areas associated with quality of life with improvements” value ([4]; 10 or 20 mg/kg/day)?
Answer: quality of life item; general health; social interactions; social activities; attention/concentration; overall quality of life; memory; language; control/helplessness; stigma item and cognition

Question: And the “patients with a positive response (slightly improved; much improved or very much improved)” value ([5]; of the 39 patients for which data were recorded)?
Answer: 34

Question: What about the “QOL measure: Very much improved” value ([5]; patient 245-01, SNAP25, end of study period) of the same molecule?
Answer: ✓

Question: What about the “QOL measure: Very much improved” value ([5]; patient 245-03, FIRES, end of study period) of the same molecule?
Answer: ✓

Question: And the “QOL measure: Much improved” value ([5]; patient 245-06, DUP15Q, end of study period)?
Answer: ✓

Question: What about the “QOL measure: Very much improved” value ([5]; patient 245-08, CDKL5, end of study period) of the same molecule?
Answer: ✓

Question: What about the “QOL measure: Very much improved” value ([5]; patient 245-11, CDKL5, end of study period) of the same molecule?
Answer: ✓

Question: What about the “QOL measure: Very much improved” value ([5]; patient 245-12, Aicardi, end of study period) of the same molecule?
Answer: ✓

Question: What about the “QOL measure: Much improved” value ([5]; patient 245-28, Aicardi, end of study period) of the same molecule?
Answer: ✓

Question: And the “QOL measure: Much improved” value ([5]; patient 245-32, DUP15Q, end of study period)?
Answer: ✓

Question: What about the “QOL measure: Very much improved” value ([5]; patient 245-37, CDKL5, end of study period) of the same molecule?
Answer: ✓

Question: And the “QOL measure: Slightly improved” value ([5]; patient 245-38, CDKL5, end of study period)?
Answer: ✓

Question: What about the “QOL measure: Much improved” value ([5]; patient 245-40, DUP15Q, end of study period) of the same molecule?
Answer: ✓

Question: What about the “QOL measure: Much improved” value ([5]; patient 245-42, DUP15Q, end of study period) of the same molecule?
Answer: ✓

Question: And the “QOL measure: Slightly improved” value ([5]; patient 245-43, DUP15Q, end of study period)?
Answer: ✓

Question: What about the “QOL measure: Slightly improved” value ([5]; patient 245-45, CDKL5, end of study period) of the same molecule?
Answer: ✓

Question: What about the “QOL measure: Very much improved” value ([5]; patient 245-47, CDKL5, end of study period) of the same molecule?
Answer: ✓

Question: What about the “QOL measure: Very much improved” value ([5]; patient 245-48, CDKL5, end of study period) of the same molecule?
Answer: ✓

Question: And the “QOL measure: Slightly worse” value ([5]; patient 245-56, CDKL5, end of study period)?
Answer: ✓

Question: And the “QOL measure: Much improved” value ([5]; patient 245-57, Aicardi, end of study period)?
Answer: ✓

Question: And the “QOL measure: Much improved” value ([5]; patient FIL-01, Aicardi, end of study period)?
Answer: ✓

Question: And the “QOL measure: Very much improved” value ([5]; patient FIL-09, Doose, end of study period)?
Answer: ✓

Question: And the “QOL measure: Much improved” value ([5]; patient FIL-14, Doose, end of study period)?
Answer: ✓

Question: And the “QOL measure: Slightly worse” value ([5]; patient FIL-25, Aicardi, end of study period)?
Answer: ✓

Question: What about the “QOL measure: No change” value ([5]; patient FLAM-25, Tuberous sclerosis, end of study period) of the same molecule?
Answer: ✓

Question: What about the “QOL measure: Very much improved” value ([5]; patient LCH-04, Aicardi, end of study period) of the same molecule?
Answer: ✓

Question: What about the “QOL measure: No change” value ([5]; patient LCH-08, Aicardi, end of study period) of the same molecule?
Answer: ✓

Question: And the “QOL measure: Very much improved” value ([5]; patient LCH-12, Aicardi, end of study period)?
Answer: ✓

Question: What about the “QOL measure: Very much improved” value ([5]; patient LCH-18, FIRES, end of study period) of the same molecule?
Answer: ✓

Question: And the “QOL measure: Very much improved” value ([5]; patient LCH-21, CDKL5, end of study period)?
Answer: ✓

Question: And the “QOL measure: Very much improved” value ([5]; patient LCH-22, Tuberous sclerosis, end of study period)?
Answer: ✓

Question: What about the “QOL measure: Much worse” value ([5]; patient MAR-E1, FIRES, end of study period) of the same molecule?
Answer: ✓

Question: What about the “QOL measure: Very much improved” value ([5]; patient MAR-E2, FIRES, end of study period) of the same molecule?
Answer: ✓

Question: And the “QOL measure: Very much improved” value ([5]; patient PAT-10, Aicardi, end of study period)?
Answer: ✓

Question: What about the “QOL measure: Very much improved” value ([5]; patient PAT-11, Aicardi, end of study period) of the same molecule?
Answer: ✓

Question: What about the “QOL measure: Very much improved” value ([5]; patient PAT-21, Aicardi, end of study period) of the same molecule?
Answer: ✓

Question: What about the “QOL measure: Much improved” value ([5]; patient PAT-26, Aicardi, end of study period) of the same molecule?
Answer: ✓

Question: What about the “QOL measure: Much improved” value ([5]; patient WIL-02, Sturge Weber, end of study period) of the same molecule?
Answer: ✓

Question: What about the “QOL measure: Much improved” value ([5]; patient WIL-05, Doose, end of study period) of the same molecule?
Answer: ✓

Question: And the “QOL measure: Much improved” value ([5]; patient WIL-09, CDKL5, end of study period)?
Answer: ✓

Question: What about the “QOL measure: Much improved” value ([5]; patient WIL-10, Angelman, end of study period) of the same molecule?
Answer: ✓

Question: And the “quality of life in patients with additional epilepsy syndromes” value ([5]; tuberous sclerosis, CDKL5, Sturge Weber, Doose, Angelman, SNAP25, FIRES, DUP15Q, Aicardi)?
Answer: observable improvement in quality of life

Question: And the “QOLCE areas with improvements” value [6]?
Answer: energy/fatigue; memory; other cognitive functions; control/helplessness; social interactions; behaviour and global quality of life
